Experiments:
[1] = system: learned conditioned avoidance behavior; test: conditioned avoidance (lever press to avoid electric foot shock) in rats; type: in vivo; conditions: Rattus norvegicus, oral, read-out: oral dose that disrupts avoidance behavior, e.g. decreases avoidance responses
Procedure: (§1) Each lever press postpones the shock for 30 seconds. Whenever the animal fails to press the lever once within said period, brief (0.5 sec.) shocks are delivered at 15 second intervals until the animal again presses the lever. Under control conditions the animals press the lever at a moderately steady rate and seldom receive more than five or six shocks during a 25-minute (rats) and up to 4-hour experimental session. Said compounds are administered to the animals 30, 90, 210 minutes prior to the experimental session, and block the learned conditioned avoidance behavior, manifested by a decrease in avoidance responding with a marked increase in shocks taken by the animal. Both the avoidance responses and failures (shocks received) are recorded separately for evaluation.

[2] = system: learned conditioned avoidance behavior; test: conditioned avoidance (lever press to avoid electric foot shock) in monkeys; type: in vivo, squirrel monkeys; conditions: Primates, oral, read-out: oral dose that disrupts avoidance behavior, e.g. decreases avoidance responses
Procedure: as §1

Q: What does the source list for `CN1CCN(C2=Nc3ccccc3Cc3nccn32)CC1` [example 1, 5-(4-methyl-1-piperazinyl)-11H-imidazo[1,2-c][1,3]benzodiazepine]?
A: minimal effective dose [1]: ≤ 50 mg/kg; minimal effective dose [2]: ≤ 50 mg/kg

Source: patent publication US4460587A, “5-Diazacycloalkyl imidazo[1,2-c][1,3]benzodiazepines” (Ciba-Geigy Corporation, priority 1982, dated 1984)
